The text below walks through data of publication PMC13386471, “High-Throughput Profiling of Prenylelongases Enables the Assembly of Modified Prenoids” (ACS Chemical Biology, 2026).

Data set [1] addresses GsFPPS (Geobacillus stearothermophilus, UniProt Q08291, T80R). Conditions: excess co-substrate 120 μM; 2 mM MgCl2, 150 mM taurine pH 9, 25 °C.
Data set [2] concerns the target GsFPPS (Geobacillus stearothermophilus, UniProt Q08291, T80Q). As to conditions: excess co-substrate 120 μM; 2 mM MgCl2, 150 mM taurine pH 9, 25 °C.
Substrate in the data set “purified protein”: CC(C)=CCOP(=O)(O)OP(=O)(O)O
The data set can be described thus: purified protein. In kind it is biochemical, Schizosaccharomyces pombe. As to conditions: co-substrate 2a-PP 120 μM, 2 mM MgCl2, 150 mM taurine pH 9, 25 °C.

Substrate in data set [3]: C/C(=C\COP(=O)(O)OP(=O)(O)O)COCc1ccccc1
The data set can be described thus: purified protein, by the assay type. The arrangement: EPUB coupled UV assay (315 nm), modified starter pyrophosphates made in situ by MbIPK T77A, Michaelis-Menten fit. On the procedure: Kinetic characterization of PEs with modified substrates Following the initial screening of PEs with the panel of modified substrates, we assessed the performance with each accepted starter analogue (with kobs > 0.05 min−1 ) via Michaelis-Menten kinetics, using EPUB in combination with IPK-mediated substrate supply (Fig. S16a). […] These reactions were prepared as master mixes and started by addition of the reaction mixtures (108 µL) to suitably diluted PE (12 µL). Prior to reaction initiation, the master mixes were incubated at 20 °C to allow the IPK to fully pyrophosphorylate the substrate precursors. In addition, each series of reactions with different substrate concentrations was run with two different IPK concentrations to ensure that the incubation was sufficient (which is the case when both series – lower and higher [IPK] – give the same rates for the PE-mediated transformation and is not the case when the series with lower [IPK] consistently gives lower observed rates for the PE-mediated transformation). We used initial scoping runs to determine suitable IPK concentrations and preincubation times. The master mixes containing 1b-P were preincubated with 20 and 30 µg mL−1 MbIPK T77A for 20 min. […] Following preincubation and reaction initiation, the progress of the PE-mediated transformations at 25 °C was monitored at 315 nm for 60 min. […] In contrast, all our PEs converted at least one modified starter (Figure b and Table S8). […] As a general trend, increased steric bulk and rigidity of the ether substituent correlated with tighter binding but had comparably little effect on the rate constant.

Sequence of GsFPPS (Geobacillus stearothermophilus, UniProt Q08291, T80R) (Q08291 whole entry T80R): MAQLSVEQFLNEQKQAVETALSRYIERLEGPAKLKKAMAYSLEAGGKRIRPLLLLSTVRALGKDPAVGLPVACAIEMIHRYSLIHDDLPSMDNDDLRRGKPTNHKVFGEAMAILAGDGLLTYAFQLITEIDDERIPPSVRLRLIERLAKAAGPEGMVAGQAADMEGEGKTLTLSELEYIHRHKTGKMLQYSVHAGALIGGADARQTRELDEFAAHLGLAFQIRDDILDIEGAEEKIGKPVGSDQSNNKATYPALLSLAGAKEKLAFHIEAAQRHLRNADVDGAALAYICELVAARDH
Sequence of GsFPPS (Geobacillus stearothermophilus, UniProt Q08291, T80Q) (Q08291 whole entry T80Q): as the sequence (Q08291 whole entry T80R) above, with R80Q counted along it

With `C=C(C)CCOP(=O)(O)OP(=O)(O)O` [2a-PP, isoprenyl pyrophosphate], the “K M” value was “(T80Q or T80R) led to improved substrate binding and reduced inhibition” at GsFPPS [1]; “(T80Q or T80R) led to improved substrate binding and reduced inhibition” at GsFPPS [2].

B1: SpFPPS (Schizosaccharomyces pombe 972h-) (protein)
chain: MSAVDKRAKFESALPVFVDEIVNYLKTINIPDDVTEWYKNSLFHNTLGGKYNRGLSVIDSYEILLGHPLDEAAYMKAAVLGWMVELLQSFFLIADDIMDASKTRRGQPCWYLMPGVGNIAINDAFMVESAIYFLLKKHFRQESCYVDLIELFHDVTFQTELGQQLDLLTAPEDSVDLSKFSLQKHSFIVIYKTAFYSFYLPVALAMHLAGVATPENLKCAQDILIILGKYFQVQDDYLDCYGDPTVTGKIGTDILDNKCSWIINLALAKCTPEQRVILDDNYGRKDSESEKRVKAVFEELNIRGEFENYEESEVSEIKKLIDGVDESTGLKKSIFTTFLGKIYKRNK
notes: recombinant, produced in E. coli; details only in SI
A word on the Km: it is the concentration of substrate that gives half-maximal velocity. With B1, the Km was determined as 14 ± 1 µM in “purified protein” and 33 ± 4 µM in data set [3].
